Results reported in article PMC4516563 (Biochimica et biophysica acta, 2015).

Assays:
human colon HCT116 = conditions: disc diffusion, 30-45 ug per disc, 7-10 days; result in words
[1] = pharmacokinetic studies, clinical trials in patients; cited from earlier work
[2] = test system: human pancreatic cancer PANC1; conditions: disc diffusion, 30-45 ug per disc, 7-10 days; result in words
human brain U251N = conditions: disc diffusion, 30-45 ug per disc, 7-10 days; result in words

## Kahalalide F [KF]
Human colon HCT116
  cytotoxicity based on the zone assay, HCT-116: minimal
[1]
  half-life: approximately 30 min
[2]
  cytotoxicity based on the zone assay, PANC-1: minimal
Human brain U251N
  cytotoxicity based on the zone assay, U251N: minimal
